Test results taken from ChEMBL document CHEMBL5696442, “Discovery of type II inhibitors of TGFβ-activated kinase 1 (TAK1) and mitogen-activated protein kinase kinase kinase kinase 2 (MAP4K2)” (J Med Chem, 2015).
Active and inactive are the calls of the source. No cut-off for these calls is given here.

Tests used:
[1] = target: Microtubule-associated serine/threonine-protein kinase 3 (Homo sapiens) (UniProt O60307); experiment: Inhibition of MAST3 Lys2 labeling site in human Huh-7 cells at 1 uM by KiNativ Profiling analysis relative to control; type: cell-based
Chain of Microtubule-associated serine/threonine-protein kinase 3 (Homo sapiens) (O60307 whole entry): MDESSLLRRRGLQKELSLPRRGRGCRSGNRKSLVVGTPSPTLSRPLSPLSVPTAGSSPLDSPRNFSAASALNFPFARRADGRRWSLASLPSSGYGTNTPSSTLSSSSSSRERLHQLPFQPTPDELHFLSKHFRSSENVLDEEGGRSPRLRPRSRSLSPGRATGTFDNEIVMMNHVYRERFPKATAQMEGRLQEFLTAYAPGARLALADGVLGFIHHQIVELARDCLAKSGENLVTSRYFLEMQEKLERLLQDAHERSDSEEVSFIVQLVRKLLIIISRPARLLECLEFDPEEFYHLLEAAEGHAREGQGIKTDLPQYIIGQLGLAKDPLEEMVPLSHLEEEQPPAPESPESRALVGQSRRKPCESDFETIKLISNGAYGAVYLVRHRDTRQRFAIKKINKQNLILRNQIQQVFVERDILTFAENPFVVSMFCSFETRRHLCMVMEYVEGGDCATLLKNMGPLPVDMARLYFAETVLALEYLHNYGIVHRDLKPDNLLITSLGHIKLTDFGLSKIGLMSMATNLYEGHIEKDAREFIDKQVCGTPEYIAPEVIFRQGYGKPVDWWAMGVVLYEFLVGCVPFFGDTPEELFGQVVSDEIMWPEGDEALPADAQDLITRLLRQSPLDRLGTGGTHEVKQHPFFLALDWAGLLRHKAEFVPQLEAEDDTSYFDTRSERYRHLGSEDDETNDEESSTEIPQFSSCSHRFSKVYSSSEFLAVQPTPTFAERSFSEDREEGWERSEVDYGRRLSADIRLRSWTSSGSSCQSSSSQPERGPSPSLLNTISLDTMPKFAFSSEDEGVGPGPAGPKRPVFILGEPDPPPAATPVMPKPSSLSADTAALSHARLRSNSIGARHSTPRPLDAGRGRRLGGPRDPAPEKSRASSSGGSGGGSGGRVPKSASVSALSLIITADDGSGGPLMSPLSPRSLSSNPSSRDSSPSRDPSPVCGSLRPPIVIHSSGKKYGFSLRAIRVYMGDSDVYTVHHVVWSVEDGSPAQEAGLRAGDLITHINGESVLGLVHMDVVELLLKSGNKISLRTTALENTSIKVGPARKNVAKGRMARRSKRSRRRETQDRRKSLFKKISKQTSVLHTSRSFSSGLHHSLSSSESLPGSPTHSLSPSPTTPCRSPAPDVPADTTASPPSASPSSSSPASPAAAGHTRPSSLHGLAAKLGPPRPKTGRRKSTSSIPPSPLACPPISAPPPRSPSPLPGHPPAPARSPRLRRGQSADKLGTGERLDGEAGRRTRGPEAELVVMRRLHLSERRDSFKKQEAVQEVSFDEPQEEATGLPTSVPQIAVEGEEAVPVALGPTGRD

[2] = target: Calcium/calmodulin-dependent protein kinase type II subunit alpha (Homo sapiens) (UniProt Q9UQM7); experiment: Inhibition of CAMK2A (unknown origin) at 10 uM by Ambit Kinomescan binding assay
[3] = target: T1, Phosphatidylinositol 5-phosphate 4-kinase type-2 gamma (Homo sapiens) (UniProt Q8TBX8); experiment: Inhibition of PIP5K2C ATP labeling site harbouring VKELPTLKDMDFLNK in human Huh-7 cells at 10 uM by KiNativ Profiling analysis relative to control; type: cell-based
T1 sequence (whole entry): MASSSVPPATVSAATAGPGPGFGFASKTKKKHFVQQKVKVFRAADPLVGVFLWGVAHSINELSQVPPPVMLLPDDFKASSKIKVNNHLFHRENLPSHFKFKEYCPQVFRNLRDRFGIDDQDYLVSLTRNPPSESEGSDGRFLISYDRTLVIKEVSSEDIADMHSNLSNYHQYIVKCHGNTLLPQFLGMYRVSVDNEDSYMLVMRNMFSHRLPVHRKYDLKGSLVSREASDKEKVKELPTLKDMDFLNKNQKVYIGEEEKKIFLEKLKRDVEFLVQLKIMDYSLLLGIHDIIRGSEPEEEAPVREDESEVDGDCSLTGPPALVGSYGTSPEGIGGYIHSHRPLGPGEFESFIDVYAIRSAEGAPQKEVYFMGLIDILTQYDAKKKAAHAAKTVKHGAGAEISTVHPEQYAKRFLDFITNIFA

[4] = target: Interferon-induced, double-stranded RNA-activated protein kinase (Homo sapiens) (UniProt P19525); experiment: Inhibition of PKR Lys2 labeling site in human A-375 cells at 0.05 uM by KiNativ Profiling analysis relative to control; type: cell-based
Chain of Interferon-induced, double-stranded RNA-activated protein kinase (Homo sapiens) (P19525 whole entry): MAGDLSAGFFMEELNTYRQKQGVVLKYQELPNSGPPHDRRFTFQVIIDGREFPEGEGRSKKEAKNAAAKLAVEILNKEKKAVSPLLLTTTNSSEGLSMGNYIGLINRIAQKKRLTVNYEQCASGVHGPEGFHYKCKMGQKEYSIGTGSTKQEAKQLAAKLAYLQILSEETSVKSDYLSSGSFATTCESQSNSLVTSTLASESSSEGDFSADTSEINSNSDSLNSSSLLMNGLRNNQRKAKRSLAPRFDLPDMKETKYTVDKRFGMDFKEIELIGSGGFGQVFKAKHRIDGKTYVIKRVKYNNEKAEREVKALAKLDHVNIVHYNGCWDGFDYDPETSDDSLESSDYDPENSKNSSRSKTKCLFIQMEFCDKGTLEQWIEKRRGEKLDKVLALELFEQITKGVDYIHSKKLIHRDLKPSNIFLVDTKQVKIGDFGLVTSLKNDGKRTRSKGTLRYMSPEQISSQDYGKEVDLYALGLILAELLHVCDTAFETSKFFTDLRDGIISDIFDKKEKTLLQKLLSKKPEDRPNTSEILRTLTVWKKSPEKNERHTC

[5] = system: Receptor-type tyrosine-protein kinase FLT3 (Homo sapiens), P36888 [N841I]; experiment: Inhibition of FLT3 N841I mutant (unknown origin) at 10 uM by Ambit Kinomescan binding assay relative to control
[6] = target: cGMP-dependent protein kinase 1 (Homo sapiens) (UniProt Q13976); experiment: Inhibition of PRKG1 (unknown origin) at 10 uM by Ambit Kinomescan binding assay
Chain of cGMP-dependent protein kinase 1 (Homo sapiens) (Q13976 whole entry): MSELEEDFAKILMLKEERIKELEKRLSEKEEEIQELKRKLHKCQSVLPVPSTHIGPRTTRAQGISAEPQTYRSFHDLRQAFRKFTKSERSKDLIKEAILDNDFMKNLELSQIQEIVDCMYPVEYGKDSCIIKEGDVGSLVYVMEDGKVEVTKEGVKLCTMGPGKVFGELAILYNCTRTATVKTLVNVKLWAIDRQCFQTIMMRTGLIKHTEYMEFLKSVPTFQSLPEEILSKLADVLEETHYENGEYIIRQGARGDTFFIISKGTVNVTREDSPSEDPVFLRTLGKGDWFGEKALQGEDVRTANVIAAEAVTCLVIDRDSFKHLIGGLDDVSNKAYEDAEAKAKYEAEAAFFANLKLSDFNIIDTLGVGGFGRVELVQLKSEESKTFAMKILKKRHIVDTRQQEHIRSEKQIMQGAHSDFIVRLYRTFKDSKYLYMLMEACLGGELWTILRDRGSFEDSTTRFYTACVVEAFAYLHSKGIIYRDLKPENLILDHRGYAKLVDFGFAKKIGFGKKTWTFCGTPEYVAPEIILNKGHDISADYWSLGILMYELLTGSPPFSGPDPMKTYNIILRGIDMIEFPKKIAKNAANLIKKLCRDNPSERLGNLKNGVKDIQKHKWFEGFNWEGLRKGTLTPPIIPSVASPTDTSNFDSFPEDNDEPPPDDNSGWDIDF

[7] = target: T2, Mitogen-activated protein kinase kinase kinase 3 (Homo sapiens) (UniProt Q99759); experiment: Inhibition of MAP3K3 Lys2 labeling site in human A-375 cells at 0.5 uM by KiNativ Profiling analysis relative to control; type: cell-based
T2 sequence (whole entry): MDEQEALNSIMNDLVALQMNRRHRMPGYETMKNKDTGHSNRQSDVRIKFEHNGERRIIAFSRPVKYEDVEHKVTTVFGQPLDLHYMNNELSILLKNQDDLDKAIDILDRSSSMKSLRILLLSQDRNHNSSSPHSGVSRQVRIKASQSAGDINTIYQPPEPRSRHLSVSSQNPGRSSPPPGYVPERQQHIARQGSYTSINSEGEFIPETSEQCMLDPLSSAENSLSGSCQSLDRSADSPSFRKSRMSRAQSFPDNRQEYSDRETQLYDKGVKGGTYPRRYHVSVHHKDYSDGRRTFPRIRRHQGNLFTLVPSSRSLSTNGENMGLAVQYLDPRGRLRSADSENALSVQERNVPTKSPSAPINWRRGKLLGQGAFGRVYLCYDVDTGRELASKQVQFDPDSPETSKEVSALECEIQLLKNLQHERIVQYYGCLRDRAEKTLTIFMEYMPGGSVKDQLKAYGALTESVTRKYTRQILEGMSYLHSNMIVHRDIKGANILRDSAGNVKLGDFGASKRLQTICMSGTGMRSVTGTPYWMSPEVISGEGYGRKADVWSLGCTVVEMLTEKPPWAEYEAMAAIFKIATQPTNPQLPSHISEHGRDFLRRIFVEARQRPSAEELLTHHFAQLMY

[8] = target: Calcium/calmodulin-dependent protein kinase type 1G (Homo sapiens) (UniProt Q96NX5); experiment: Inhibition of CAMK1G (unknown origin) at 10 uM by Ambit Kinomescan binding assay relative to control
Chain of Calcium/calmodulin-dependent protein kinase type 1G (Homo sapiens) (Q96NX5 whole entry): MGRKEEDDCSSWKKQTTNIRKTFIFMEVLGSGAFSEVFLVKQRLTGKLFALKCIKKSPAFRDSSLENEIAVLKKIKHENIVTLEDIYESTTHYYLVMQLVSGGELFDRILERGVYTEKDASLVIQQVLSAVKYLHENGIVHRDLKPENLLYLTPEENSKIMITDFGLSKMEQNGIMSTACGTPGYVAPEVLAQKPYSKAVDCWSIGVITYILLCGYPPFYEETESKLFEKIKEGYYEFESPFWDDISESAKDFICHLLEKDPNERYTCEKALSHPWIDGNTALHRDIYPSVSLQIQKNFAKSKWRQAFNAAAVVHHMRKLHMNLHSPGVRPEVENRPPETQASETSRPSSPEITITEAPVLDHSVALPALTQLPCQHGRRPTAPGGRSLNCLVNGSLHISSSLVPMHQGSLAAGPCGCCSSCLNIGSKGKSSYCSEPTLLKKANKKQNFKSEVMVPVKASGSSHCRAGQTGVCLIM

[9] = target: Tyrosine-protein kinase Blk (Homo sapiens) (UniProt P51451); experiment: Inhibition of BLK (unknown origin) at 10 uM by Ambit Kinomescan binding assay relative to control
Chain of Tyrosine-protein kinase Blk (Homo sapiens) (P51451 2-505 limits assumed): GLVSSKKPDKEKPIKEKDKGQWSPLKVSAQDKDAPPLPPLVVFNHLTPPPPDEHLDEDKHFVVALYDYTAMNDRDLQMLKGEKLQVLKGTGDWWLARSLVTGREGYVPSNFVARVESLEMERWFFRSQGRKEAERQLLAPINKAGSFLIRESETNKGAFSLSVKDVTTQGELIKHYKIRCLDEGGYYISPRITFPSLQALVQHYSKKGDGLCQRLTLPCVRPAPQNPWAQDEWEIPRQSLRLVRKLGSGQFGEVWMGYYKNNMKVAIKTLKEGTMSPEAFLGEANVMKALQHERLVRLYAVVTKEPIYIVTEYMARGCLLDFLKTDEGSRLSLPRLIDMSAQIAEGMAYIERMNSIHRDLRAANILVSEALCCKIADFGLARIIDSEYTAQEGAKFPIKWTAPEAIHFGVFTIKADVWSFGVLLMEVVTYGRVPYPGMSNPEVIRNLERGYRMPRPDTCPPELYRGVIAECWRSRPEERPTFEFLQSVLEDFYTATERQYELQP

[10] = target: Mitogen-activated protein kinase 8 (Homo sapiens, UniProt P45983); experiment: Inhibition of JNK1 (unknown origin) at 1 uM by Ambit Kinomescan binding assay relative to control
Chain of Mitogen-activated protein kinase 8 (P45983 whole entry): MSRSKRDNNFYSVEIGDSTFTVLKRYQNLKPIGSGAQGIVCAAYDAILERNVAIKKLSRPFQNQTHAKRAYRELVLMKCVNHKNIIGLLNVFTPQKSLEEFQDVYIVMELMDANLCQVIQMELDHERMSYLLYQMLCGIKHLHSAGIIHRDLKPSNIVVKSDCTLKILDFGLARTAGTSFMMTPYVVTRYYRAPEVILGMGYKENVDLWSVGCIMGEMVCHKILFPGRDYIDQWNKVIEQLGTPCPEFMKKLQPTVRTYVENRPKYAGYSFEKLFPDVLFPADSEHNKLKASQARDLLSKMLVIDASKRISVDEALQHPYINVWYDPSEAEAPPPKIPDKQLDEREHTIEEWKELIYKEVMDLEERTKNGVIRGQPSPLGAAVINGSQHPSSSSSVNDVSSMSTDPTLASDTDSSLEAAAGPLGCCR

[11] = target: Platelet-derived growth factor receptor beta (Homo sapiens) (UniProt P09619); experiment: Inhibition of PDGFRB (unknown origin) at 1 uM by Ambit Kinomescan binding assay relative to control
Chain of Platelet-derived growth factor receptor beta (Homo sapiens) (P09619 whole entry): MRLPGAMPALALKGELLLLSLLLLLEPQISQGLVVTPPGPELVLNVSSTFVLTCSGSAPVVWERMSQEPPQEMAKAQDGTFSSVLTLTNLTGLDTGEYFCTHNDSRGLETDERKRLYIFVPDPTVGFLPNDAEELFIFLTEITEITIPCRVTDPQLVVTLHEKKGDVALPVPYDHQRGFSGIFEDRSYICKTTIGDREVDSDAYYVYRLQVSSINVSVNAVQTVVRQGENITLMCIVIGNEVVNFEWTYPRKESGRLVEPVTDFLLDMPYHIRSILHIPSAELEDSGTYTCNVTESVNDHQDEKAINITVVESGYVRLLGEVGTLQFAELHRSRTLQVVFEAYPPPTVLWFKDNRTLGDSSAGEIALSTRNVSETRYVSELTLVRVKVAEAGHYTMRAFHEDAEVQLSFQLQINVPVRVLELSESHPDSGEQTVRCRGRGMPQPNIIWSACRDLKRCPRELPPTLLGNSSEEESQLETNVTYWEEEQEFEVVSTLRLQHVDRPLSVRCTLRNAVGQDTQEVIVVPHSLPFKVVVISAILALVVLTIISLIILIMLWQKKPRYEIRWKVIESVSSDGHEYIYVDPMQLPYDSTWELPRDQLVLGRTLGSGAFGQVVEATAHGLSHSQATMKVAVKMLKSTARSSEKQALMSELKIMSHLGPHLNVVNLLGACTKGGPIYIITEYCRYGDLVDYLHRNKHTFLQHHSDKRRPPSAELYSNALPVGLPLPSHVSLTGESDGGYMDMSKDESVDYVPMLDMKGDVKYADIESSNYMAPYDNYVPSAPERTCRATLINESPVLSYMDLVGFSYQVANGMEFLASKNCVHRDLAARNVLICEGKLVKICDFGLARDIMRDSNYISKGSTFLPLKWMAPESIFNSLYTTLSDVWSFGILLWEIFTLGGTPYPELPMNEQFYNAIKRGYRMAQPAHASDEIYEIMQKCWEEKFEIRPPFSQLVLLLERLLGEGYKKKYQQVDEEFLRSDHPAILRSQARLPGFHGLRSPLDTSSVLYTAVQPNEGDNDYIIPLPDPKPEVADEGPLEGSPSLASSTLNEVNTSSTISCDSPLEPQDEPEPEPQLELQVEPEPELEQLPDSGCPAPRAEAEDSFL

[12] = system: Mast/stem cell growth factor receptor Kit (Homo sapiens), P10721 [A829P]; experiment: Inhibition of KIT A829P mutant (unknown origin) at 1 uM by Ambit Kinomescan binding assay relative to control; values are per cent of control
[13] = target: Mitogen-activated protein kinase 14 (Homo sapiens, UniProt Q16539); experiment: Inhibition of p38 alpha in human A-375 cells at 0.05 uM by KiNativ Profiling analysis relative to control; type: cell-based
[14] = system: Tyrosine-protein kinase ABL1 (Homo sapiens), P00519 [F317L]; experiment: Inhibition of phosphorylated ABL1 F317L mutant (unknown origin) at 1 uM by Ambit Kinomescan binding assay relative to control; values are per cent of control

## CNc1cc(Oc2cc(C(=O)Nc3cc(N4CCN(C)CC4)cc(C(F)(F)F)c3)ccc2C)ncn1
[1]
  inhibition: 14.9%

## CCN1CCN(Cc2ccc(NC(=O)c3ccc(C)c(Oc4ccnc5[nH]ccc45)c3)cc2C(F)(F)F)CC1
[2]
  inhibition: inactive
[3]
  inhibition: 11.6%
[4]
  inhibition: -8.1%
[5]
  inhibition: 0%
[6]
  inhibition: inactive
[7]
  inhibition: 2.8%
[8]
  inhibition: 20%
[9]
  inhibition: 0.45%

## CCN1CCN(Cc2ccc(NC(=O)c3ccc(C)c(/C=C/c4cnc5[nH]ccc5c4OC)c3)cc2C(F)(F)F)CC1
[10]
  inhibition: 77%
[11]
  inhibition: 0.1%
[12]
  residual activity: 8%
[13]
  inhibition: 73.1%
[14]
  percent of control: 3.4%
